# According to ChEMBL document CHEMBL4813957, “Antitubercular properties of thiazolidin-4-ones - A review” (Eur J Med Chem, 2021):
# Tests used:
# [1] = tested on: Mycobacterium tuberculosis; experiment: Antimycobacterial activity against Mycobacterium tuberculosis H37Ra; format: functional
# [2] = tested on: Mycobacterium tuberculosis; experiment: Antimycobacterial activity against Mycobacterium tuberculosis H37Rv ATCC 27294 incubated for 5 days by microplate alamar blue assay; format: functional; details: H37Rv ATCC 27294, 120 h, time 5 day
# [3] = tested on: Mycobacterium tuberculosis; experiment: Antimycobacterial activity against Mycobacterium tuberculosis H37Rv incubated for 7 days by microplate alamar blue assay; format: functional; details: 168 h, time 7 day
# [4] = tested on: Mycobacterium tuberculosis; experiment: Antimycobacterial activity against Mycobacterium tuberculosis H37Ra ATCC 25177 incubated for 7 days by microplate alamar blue assay; format: functional; details: H37Ra ATCC 25177, 168 h, time 7 day
# [5] = tested on: Mycobacterium tuberculosis; experiment: Bactericidal activity against Mycobacterium tuberculosis H37Ra ATCC 25177 assessed as ratio of MBC to MIC; format: functional
# [6] = Selectivity index, ratio of IC50 for African green monkey Vero cells to MIC for antitubercular activity against Mycobacterium tuberculosis H37Ra ATCC 25177; format: toxicity
# [7] = tested on: Mycobacterium tuberculosis; experiment: Antimycobacterial activity against Mycobacterium tuberculosis H37Rv; format: functional
# [8] = tested on: Mycobacterium tuberculosis; experiment: Antimycobacterial activity against Mycobacterium tuberculosis H37Ra 7131 incubated for 21 days by broth dilution method; format: functional; details: H37Ra 7131, 504 h, time 21 day
# [9] = tested on: Mycobacterium tuberculosis; experiment: Antimycobacterial activity against Mycobacterium tuberculosis H37Rv assessed as bacterial inhibition at 25 ug/ml by microplate alamar blue assay relative to control; format: functional
# [10] = tested on: Mycobacterium tuberculosis; experiment: Antimycobacterial activity against Mycobacterium tuberculosis H37Ra ATCC 25177 measured on 8th to 12th day by XTT reduction menadione assay; format: functional; details: time 8-12 day
# [11] = tested on: Mycobacterium tuberculosis; experiment: Antimycobacterial activity against Mycobacterium tuberculosis H37Rv measured after 14 days by test tube dilution technique; format: functional; details: 336 h, time 14 day
# [12] = tested on: Mycobacterium tuberculosis; experiment: Antimycobacterial activity against Mycobacterium tuberculosis H37Rv measured after 21 days by test tube dilution technique; format: functional; details: 504 h, time 21 day
# [13] = tested on: Mycobacterium tuberculosis; experiment: Antimycobacterial activity against Mycobacterium tuberculosis H37Rv ATCC27294 incubated for 7 days by microplate alamar blue assay; format: functional; details: H37Rv ATCC 27294, 168 h, time 7 day
# [14] = tested on: Mycolicibacterium smegmatis; experiment: Antimycobacterial activity against Mycobacterium smegmatis ATCC 35797 incubated for 48 hrs by agar dilution method; format: functional
# [15] = tested on: Mycobacterium tuberculosis; experiment: Antimycobacterial activity against Mycobacterium tuberculosis H37Rv assessed as growth inhibition at 6.25 ug/ml by microplate alamar blue assay relative to control; format: functional; details: read-out: GI
# [16] = tested on: Mycobacterium tuberculosis; experiment: Antimycobacterial activity against Mycobacterium tuberculosis H37Rv by Lowenstein-Jensen method relative to control; format: functional
# [17] = tested on: Mycobacterium tuberculosis; experiment: Antimycobacterial activity against Mycobacterium tuberculosis H37Rv by microplate alamar blue assay; format: functional
# [18] = tested on: Mycobacterium tuberculosis; experiment: Antimycobacterial activity against Mycobacterium tuberculosis H37Rv incubated for 5 days by microplate alamar blue assay; format: functional; details: 120 h, time 5 day
smiles,measurement,setting,value
CCOC(=O)C(C(C)C)N1C(=O)C(C)SC1c1ccc2c(c1)c1ccccc1n2CC (stereo not given),MIC,[1],25 µg/mL
CCOC(=O)C(C(C)C)N1C(=O)C(C)SC1c1cccc(OC)c1O (stereo not given),MIC,[1],25 µg/mL
O=C(NN1C(=O)CSC1c1ccco1)c1ccncc1 (stereo not given),MIC,[2],1.25 µg/mL
COc1cc(C2SCC(=O)N2NC(=O)c2ccncc2)ccc1O (stereo not given),MIC,[2],0.31 µg/mL
COc1ccc(C2SCC(=O)N2c2n[nH]c(=S)s2)cc1 (stereo not given),MIC,[3],6.25 µg/mL
Cc1ccc(C2SCC(=O)N2c2n[nH]c(=S)s2)cc1 (stereo not given),MIC,[3],12.5 µg/mL
O=C1NC(=S)S/C1=C\c1ccccc1O,MIC,[1],95 µg/mL
NC(=S)N/N=C/c1ccc(OC(=O)CC2SC(=O)NC2=O)cc1 (stereo not given),MIC,[4],0.031 µg/mL
same,Ratio,[5],2
same,selectivity ratio,[6],> 10
COc1cc(-c2cc(-c3ccc(Cl)cc3)nc(NC(=O)NN3C(=O)CSC3c3ccccc3[N+](=O)[O-])n2)cc(OC)c1OC (stereo not given),MIC,[7],100 µg/mL
C=CC/N=C1\SC(=O)C(=O)N1NC(=O)c1ccncc1,MIC,[8],19.5 µg/mL
CCCCCCCCCCCCN1C(=O)C(CC(=O)O)SC12CCN(C(=O)C(N)C(C)CC)CC2 (stereo not given),inhibition at 25 µg/mL,[9],97%
NC(=S)N/N=C/c1ccc(OC(=O)/C=C2\SC(=O)NC2=O)c(Cl)c1,MIC,[4],0.031 µg/mL
same,Ratio,[5],2
same,selectivity ratio,[6],> 10
O=C1NC(=S)S/C1=C\c1c(O)ccc2ccccc12,MIC,[1],95 µg/mL
O=C1/C(=C/c2ccc([N+](=O)[O-])cc2)SC(c2ccc([N+](=O)[O-])cc2)N1NCCNc1ncc([N+](=O)[O-])s1 (stereo not given),MIC,[7],25 µg/mL
Cc1cc(NS(=O)(=O)c2ccc(N3C(=O)CSC3c3c(F)cccc3F)cc2)no1 (stereo not given),IC90,[10],0.43 µg/mL
CCCCCCCCN1C(=O)CSC12CCCCC2,inhibition at 25 µg/mL,[9],96%
O=C(COc1cnccn1)N/N=C1/SCC(=O)N1c1ccc(Cl)cc1Cl,MIC,[11],> 100 µg/mL
same,MIC,[12],> 100 µg/mL
CCCCCCCCCCCCN1C(=O)C(CC(=O)O)SC12CCN(C(=O)C(N)CCCCN)CC2 (stereo not given),inhibition at 25 µg/mL,[9],96%
COc1cccc(C2SCC(=O)N2NC(=O)c2cc(O)c(O)c(O)c2)c1O (stereo not given),MIC,[13],0.79 µg/mL
O=C1CSC(c2ccc(O)cc2)N1c1nnc(S)s1 (stereo not given),MIC,[3],12.5 µg/mL
CCCCCCCCCCCCN1C(=O)C(CC(=O)O)SC12CCCCCCCC2 (stereo not given),inhibition at 25 µg/mL,[9],96%
COc1ccc(C2SCC(=O)N2NC(=O)c2ccncc2)cc1 (stereo not given),MIC,[2],1.25 µg/mL
CCC1SCC(=O)N1NC(=O)c1ccncc1 (stereo not given),MIC,[14],> 100 µg/mL
O=C1CSC(c2ccc(Cl)cc2)N1NC(=O)C(O)(c1ccccc1)c1ccccc1 (stereo not given),inhibition of growth at 6.25 µg/mL,[15],99%
Cc1ccccc1/N=N/c1ccc(/C=C2\SC(=S)NC2=O)c(O)c1,MIC,[1],95 µg/mL
CCCCCCCCCCC1SCC(=O)N1NC(=O)c1ccncc1 (stereo not given),MIC,[14],25 µg/mL
C/C(=N\N1C(=O)CSC1c1ccc(O)cc1)c1oc2ccc(Cl)cc2c1C (stereo not given),MIC,[7],25 µg/mL
CC1SC(c2ccc(C#N)cc2)N(NC(=O)C(O)(c2ccccc2)c2ccccc2)C1=O (stereo not given),inhibition of growth at 6.25 µg/mL,[15],99%
CN(C)c1ccc(C2SCC(=O)N2NC(=O)c2ccncc2)cc1 (stereo not given),MIC,[2],5 µg/mL
O=C(NN1C(=O)CSC1c1ccccc1O)c1cc(O)c(O)c(O)c1 (stereo not given),MIC,[13],0.79 µg/mL
O=C(COc1cnccn1)N/N=C1/SCC(=O)N1c1ccc(Cl)cc1[N+](=O)[O-],MIC,[11],85 µg/mL
same,MIC,[12],89 µg/mL
CC/N=C1\SC(=O)C(=O)N1NC(=O)c1ccncc1,MIC,[8],19.5 µg/mL
O=C(NN1C(=O)CSC1c1ccccc1Cl)c1cc(O)c(O)c(O)c1 (stereo not given),MIC,[13],0.79 µg/mL
NC(=S)N/N=C/c1ccc(OC(=O)CC2SC(=O)NC2=O)c(Br)c1 (stereo not given),MIC,[4],0.031 µg/mL
same,Ratio,[5],2
same,selectivity ratio,[6],> 10
CC1SC(c2ccc(OCc3ccccc3)cc2)N(NC(=O)C(O)(c2ccccc2)c2ccccc2)C1=O (stereo not given),inhibition of growth at 6.25 µg/mL,[15],98%
N=C1S/C(=C\c2ccccc2)C(=O)N1NC(=O)c1ccncc1,MIC,[8],12 µg/mL
CCCCCCCCCCCC1SCC(=O)N1NC(=O)c1ccncc1 (stereo not given),MIC,[14],6 µg/mL
Cc1cccc(/N=C2\SC(=O)C(=O)N2NC(=O)c2ccncc2)c1,MIC,[8],19.5 µg/mL
CCOc1ccc(N2C(=O)CS/C2=N/NC(=O)COc2cnccn2)cc1,MIC,[11],> 100 µg/mL
same,MIC,[12],> 100 µg/mL
CCCCCCCCCCCCN1C(=O)C(CC(=O)O)SC12CCN(C(=O)OC(C)(C)C)CC2 (stereo not given),inhibition at 25 µg/mL,[9],96%
O=C(NCCCNc1ncc([N+](=O)[O-])s1)N1C(=O)/C(=C/c2ccccc2[N+](=O)[O-])SC1c1ccccc1[N+](=O)[O-] (stereo not given),MIC,[16],2.75 µg/mL
O=C(COc1cnccn1)N/N=C1/SCC(=O)N1c1ccc(Cl)cc1,MIC,[11],> 100 µg/mL
same,MIC,[12],> 100 µg/mL
N=C1SC(Br)(C(Br)c2ccc([N+](=O)[O-])cc2)C(=O)N1NC(=O)c1ccncc1 (stereo not given),MIC,[8],11 µg/mL
Cc1ccc(/N=C2\SC(=O)C(=O)N2NC(=O)c2ccncc2)cc1,MIC,[8],78 µg/mL
COc1ccc(C2SCC(=O)N2c2nnc(S)s2)cc1OC (stereo not given),MIC,[3],1.6 µg/mL
O=C1/C(=C/c2ccccc2Cl)SC(c2ccccc2Cl)N1NCCNc1ncc([N+](=O)[O-])s1 (stereo not given),MIC,[7],25 µg/mL
CCCCCCCC1SCC(=O)N1NC(=O)c1ccncc1 (stereo not given),MIC,[14],> 25 µg/mL
Cc1ccc(/N=N/c2ccc(/C=C3\SC(=S)NC3=O)c(O)c2)cc1,MIC,[1],95 µg/mL
O=C(NN1C(=O)CSC1c1ccc([N+](=O)[O-])cc1)c1ccncc1 (stereo not given),MIC,[2],3.12 µg/mL
NC(=S)N/N=C/c1ccc(OC(=O)CC2SC(=O)NC2=O)c(Cl)c1 (stereo not given),MIC,[4],0.031 µg/mL
same,Ratio,[5],2
same,selectivity ratio,[6],> 10
O=C1CSC(c2ccc(OCc3ccccc3)cc2)N1NC(=O)C(O)(c1ccccc1)c1ccccc1 (stereo not given),inhibition of growth at 6.25 µg/mL,[15],98%
CCCCCCCCCCCCN1C(=O)C(CC(=O)O)SC12CCCC2 (stereo not given),inhibition at 25 µg/mL,[9],97%
COc1ccc(C2SCC(=O)N2NC(=O)Nc2nc(-c3ccc(Cl)cc3)cc(-c3cc(OC)c(OC)c(OC)c3)n2)cc1 (stereo not given),MIC,[7],100 µg/mL
O=C(NN1C(=O)CSC1c1ccccc1O)c1ccncc1 (stereo not given),MIC,[2],0.62 µg/mL
CCCCN1C(=O)CS/C1=N/NC(=O)COc1cnccn1,MIC,[11],> 100 µg/mL
same,MIC,[12],> 100 µg/mL
COc1cc(-c2cc(-c3ccc(Cl)cc3)nc(NC(=O)NN3C(=O)CSC3c3ccccc3O)n2)cc(OC)c1OC (stereo not given),MIC,[7],100 µg/mL
CCCCCCCCCCCCN1C(=O)C(CC(=O)O)SC12CCC(C(C)(C)C)CC2 (stereo not given),inhibition at 25 µg/mL,[9],96%
CC(C)(C)N1C(=O)CS/C1=N/NC(=O)COc1cnccn1,MIC,[11],> 100 µg/mL
same,MIC,[12],> 100 µg/mL
CC1SC(c2ccc(Cl)cc2)N(NC(=O)C(O)(c2ccccc2)c2ccccc2)C1=O (stereo not given),inhibition of growth at 6.25 µg/mL,[15],99%
O=C(NN1C(=O)CSC1c1cccc(O)c1)c1cc(O)c(O)c(O)c1 (stereo not given),MIC,[13],0.79 µg/mL
Cc1ccc(/C=C2\SC(=N)N(NC(=O)c3ccncc3)C2=O)cc1,MIC,[8],13 µg/mL
COc1ccc(/N=N/c2ccc(/C=C3\SC(=S)NC3=O)c(O)c2)cc1,MIC,[1],95 µg/mL
NC(=S)N/N=C/c1ccc(OC(=O)/C=C2\SC(=O)NC2=O)cc1,MIC,[4],0.031 µg/mL
same,Ratio,[5],2
same,selectivity ratio,[6],> 10
CC(C)N1C(=O)CS/C1=N/NC(=O)COc1cnccn1,MIC,[11],> 100 µg/mL
same,MIC,[12],> 100 µg/mL
O=C(NN1C(=O)CSC1c1ccc(O)cc1)c1cc(O)c(O)c(O)c1 (stereo not given),MIC,[13],0.79 µg/mL
CCCCCCCCCC1SCC(=O)N1NC(=O)c1ccncc1 (stereo not given),MIC,[14],25 µg/mL
COc1cc(/C=N/NC(N)=S)ccc1OC(=O)/C=C1\SC(=O)NC1=O,MIC,[4],0.031 µg/mL
same,Ratio,[5],2
same,selectivity ratio,[6],> 10
N=C1SC(Br)(C(Br)c2ccccc2)C(=O)N1NC(=O)c1ccncc1 (stereo not given),MIC,[8],13 µg/mL
N#Cc1ccc(C2SCC(=O)N2NC(=O)C(O)(c2ccccc2)c2ccccc2)cc1 (stereo not given),inhibition of growth at 6.25 µg/mL,[15],98%
CCCCCCCCCCCCN1C(=O)C(CC(=O)O)SC12CCCCCC2 (stereo not given),inhibition at 25 µg/mL,[9],96%
CCCCCCCCCCCCN1C(=O)C(CC(=O)O)SC12CCCCC2 (stereo not given),inhibition at 25 µg/mL,[9],97%
O=C(NN1C(=O)CSC1c1ccccc1)c1cc(O)c(O)c(O)c1 (stereo not given),MIC,[13],0.79 µg/mL
O=C1NC(=S)S/C1=C\c1ccc(/N=N/c2ccccc2)cc1O,MIC,[1],95 µg/mL
O=C(O)c1cn(C2CC2)c2cc(N3CCNCC3)c(F)cc2c1=O [CIPROFLOXACIN],MIC,[17],3.12 µg/mL
same,MIC,[18],3.12 µg/mL
same,MIC,[3],3.12 µg/mL
